One may read the MIC as the lowest concentration that inhibits growth of the organism.

Assay [1] has as its system Pseudomonas aeruginosa. In words: Antibacterial activity against Pseudomonas aeruginosa by twofold dilution method. Type of assay: functional.
Assay [2] deals with Staphylococcus aureus. In words: Antibacterial activity against Staphylococcus aureus by twofold dilution method. Type of assay: functional.
The test system of assay [3] is Salmonella enterica subsp. enterica. As to the kind of experiment: Antibacterial activity against Salmonella typhi by twofold dilution method. Type of assay: functional, Salmonella enterica subsp. enterica serovar Typhi.
The subject of assay [4] is Escherichia coli. In words: Antibacterial activity against Escherichia coli by twofold dilution method. Type of assay: functional.
Assay [5] deals with Candida albicans. As to the kind of experiment: Antifungal activity against Candida albicans by twofold dilution method. Type of assay: functional.
Assay [6] concerns Candida. As to the kind of experiment: Antifungal activity against Candida 51 by twofold dilution method. Type of assay: functional.
For assay [7], the system named is Rhizopus. In words: Antifungal activity against Rhizopus sp. by twofold dilution method. Type of assay: functional.
Assay [8] has as its system Aspergillus niger. In words: Antifungal activity against Aspergillus niger by twofold dilution method. Type of assay: functional.
The subject of assay [9] is Aspergillus flavus. As to the kind of experiment: Antifungal activity against Aspergillus flavus by twofold dilution method. Type of assay: functional.
The subject of assay [10] is Cryptococcus neoformans. As to the kind of experiment: Antifungal activity against Cryptococcus neoformans by twofold dilution method. Type of assay: functional.
The test system of assay [11] is Staphylococcus aureus. In words: Ratio of MIC for drug to MIC for Ciprofloxacin against Staphylococcus aureus. Type of assay: functional.
The subject of assay [12] is Salmonella enterica subsp. enterica. As to the kind of experiment: Ratio of MIC for drug to MIC for Ciprofloxacin against Salmonella typhi. Type of assay: functional, Salmonella enterica subsp. enterica serovar Typhi.
Assay [13] has as its system Escherichia coli. In words: Ratio of MIC for drug to MIC for Ciprofloxacin against Escherichia coli. Type of assay: functional.
Assay [14] deals with Pseudomonas aeruginosa. In words: Ratio of MIC for drug to MIC for Ciprofloxacin against Pseudomonas aeruginosa. Type of assay: functional.
The subject of assay [15] is Rhizopus. As to the kind of experiment: Ratio of MIC for drug to MIC for Amphotericin B against Rhizopus sp. Type of assay: functional.
Assay [16] relates to Aspergillus flavus. As to the kind of experiment: Ratio of MIC for drug to MIC for Amphotericin B against Aspergillus flavus. Type of assay: functional.
Assay [17] has as its system Candida albicans. In words: Ratio of MIC for drug to MIC for Amphotericin B against Candida albicans. Type of assay: functional.
Assay [18] relates to Aspergillus niger. As to the kind of experiment: Ratio of MIC for drug to MIC for Amphotericin B against Aspergillus niger. Type of assay: functional.
For assay [19], the system named is Cryptococcus neoformans. In words: Ratio of MIC for drug to MIC for Amphotericin B against Cryptococcus neoformans. Type of assay: functional.
[20] abbreviates: Pseudomonas aeruginosa, read-out: MIC.
Setting [21] is: Staphylococcus aureus, read-out: MIC.
Where [22] appears, read: Salmonella enterica, read-out: MIC.
Where [23] appears, read: Escherichia coli, read-out: MIC.
The mark [24] stands for this setting: Candida albicans, read-out: MIC.
Setting [25] is: Aspergillus niger, read-out: MIC.
The mark [26] stands for this setting: Aspergillus flavus, read-out: MIC.
[27] abbreviates: Cryptococcus neoformans, read-out: MIC.

Values after ≈ are worked out from the molar mass of the structure shown. A value given as a limit tells only on which side of the number the result lay.

As to `CC1C(=NOCc2ccccc2)C(C)C(c2ccc(Cl)cc2)NC1c1ccc(Cl)cc1` (stereo not given), the MIC in [1] (setting [20]) was 6.25 µg/mL (≈ 13.8 µM); in assay [2] (setting [21]), 6.25 µg/mL (≈ 13.8 µM); in assay [3] (setting [22]) it was 25 µg/mL (≈ 55.1 µM); in assay [4] (setting [23]), 12.5 µg/mL (≈ 27.6 µM); in assay [5] (setting [24]), 25 µg/mL (≈ 55.1 µM); in [6] (Candida, 51, read-out: MIC), 25 µg/mL (≈ 55.1 µM). The MIC is 50 µg/mL (≈ 110 µM) in assay [7] (Rhizopus, read-out: MIC); 25 µg/mL (≈ 55.1 µM) in assay [8] (setting [25]); 25 µg/mL (≈ 55.1 µM) in [9] (setting [26]); 25 µg/mL (≈ 55.1 µM) in assay [10] (setting [27]). Further, the Ratio in assay [11] was found to be 2; in assay [12], 2; in assay [13], 2; in assay [14], 4.
Turning to `Cc1ccc([C@@H]2C/C(=N/OCc3ccccc3)C[C@H](c3ccc(C)cc3)S2)cc1`, the MIC worked out at 25 µg/mL (≈ 62.3 µM) in assay [1] (setting [20]); 12.5 µg/mL (≈ 31.1 µM) in assay [2] (setting [21]); 25 µg/mL (≈ 62.3 µM) in assay [3] (setting [22]); 50 µg/mL (≈ 125 µM) in assay [4] (setting [23]); 100 µg/mL (≈ 249 µM) in [5] (setting [24]); 100 µg/mL (≈ 249 µM) in assay [6] (Candida, 51, read-out: MIC). Further, the MIC worked out at 50 µg/mL (≈ 125 µM) in [7] (Rhizopus, read-out: MIC); 50 µg/mL (≈ 125 µM) in [8] (setting [25]); 100 µg/mL (≈ 249 µM) in assay [9] (setting [26]); 200 µg/mL (≈ 498 µM) in [10] (setting [27]). For the same molecule, the Ratio in [11] and in assay [12] was 2 throughout.
`Cc1ccc(C2NC(c3ccc(C)cc3)C(C)C(=NOCc3ccccc3)C2C)cc1` (stereo not given): the MIC in assay [1] (setting [20]) turned out to be 25 µg/mL (≈ 60.6 µM); in [2] (setting [21]) it was 6.25 µg/mL (≈ 15.1 µM); in assay [3] (setting [22]), 50 µg/mL (≈ 121 µM); in [4] (setting [23]), 12.5 µg/mL (≈ 30.3 µM); in [5] (setting [24]) it was 50 µg/mL (≈ 121 µM); in assay [6] (Candida, 51, read-out: MIC), 6.25 µg/mL (≈ 15.1 µM). Further, the MIC in assay [7] (Rhizopus, read-out: MIC) was 12.5 µg/mL (≈ 30.3 µM); in [8] (setting [25]), 50 µg/mL (≈ 121 µM); in assay [9] (setting [26]), 25 µg/mL (≈ 60.6 µM); in [10] (setting [27]), 50 µg/mL (≈ 121 µM). The Ratio is listed as 4 in assay [13]; 4 in [14]; 2 in [15]; 2 in assay [16]; 2 in assay [17]; 2 in assay [18]. Moreover, the Ratio in assay [19] is recorded as 2.
With `Cc1ccc([C@@H]2CC(=NOCc3ccccc3)C[C@@H](c3ccc(C)cc3)S2)cc1` (relative stereo), the MIC in assay [1] (setting [20]) was determined as 100 µg/mL (≈ 249 µM); in assay [2] (setting [21]), 100 µg/mL (≈ 249 µM); in assay [3] (setting [22]), 100 µg/mL (≈ 249 µM); in assay [4] (setting [23]), 50 µg/mL (≈ 125 µM); in assay [5] (setting [24]) it was 50 µg/mL (≈ 125 µM); in assay [6] (Candida, 51, read-out: MIC), 200 µg/mL (≈ 498 µM). Moreover, the MIC worked out at 50 µg/mL (≈ 125 µM) in assay [7] (Rhizopus, read-out: MIC); 100 µg/mL (≈ 249 µM) in [8] (setting [25]); 100 µg/mL (≈ 249 µM) in [9] (setting [26]); 50 µg/mL (≈ 125 µM) in assay [10] (setting [27]).
As to `CC1C(=NOCc2ccccc2)C(C)C(c2ccccc2)NC1c1ccccc1` (stereo in doubt; 5f1), the MIC in [1] amounted to 50 µg/mL (≈ 130 µM); in assay [2] (setting [21]), 200 µg/mL (≈ 520 µM); in assay [3] (setting [22]), 100 µg/mL (≈ 260 µM); in assay [4] (setting [23]), 50 µg/mL (≈ 130 µM); in assay [5] (setting [24]) it was 50 µg/mL (≈ 130 µM); in [6] (Candida, 51, read-out: MIC), 50 µg/mL (≈ 130 µM). In addition, the MIC in [7] (Rhizopus, read-out: MIC) was 100 µg/mL (≈ 260 µM); in [8] (setting [25]) it was 100 µg/mL (≈ 260 µM); in assay [9] (setting [26]) it was 200 µg/mL (≈ 520 µM); in [10] (setting [27]), 100 µg/mL (≈ 260 µM).
For `CC1C(=NOCc2ccccc2)C(C)C(c2ccccc2)NC1c1ccccc1` (stereo in doubt; 5f2), the MIC was 200 µg/mL (≈ 520 µM) in assay [1]; 100 µg/mL (≈ 260 µM) in [2]; 100 µg/mL (≈ 260 µM) in [3]; 100 µg/mL (≈ 260 µM) in [4]; 100 µg/mL (≈ 260 µM) in assay [5]; 100 µg/mL (≈ 260 µM) in assay [6]. The MIC in assay [7] was 50 µg/mL (≈ 130 µM); in assay [8], 100 µg/mL (≈ 260 µM); in assay [9], over 200 µg/mL; in assay [10] it was 200 µg/mL (≈ 520 µM).
Turning to `CC1C(=NOCc2ccccc2)C(C)C(c2ccc(Cl)cc2)OC1c1ccc(Cl)cc1` (stereo in doubt; 7c1), the MIC was determined as 25 µg/mL (≈ 55 µM) in assay [1] (setting [20]); 50 µg/mL (≈ 110 µM) in assay [2] (setting [21]); 50 µg/mL (≈ 110 µM) in assay [3] (setting [22]); 50 µg/mL (≈ 110 µM) in [4] (setting [23]); 50 µg/mL (≈ 110 µM) in [5]; 50 µg/mL (≈ 110 µM) in assay [6] (Candida, 51, read-out: MIC). In addition, the MIC in [7] (Rhizopus, read-out: MIC) was 50 µg/mL (≈ 110 µM); in [8] (setting [25]), 100 µg/mL (≈ 220 µM); in [9] (setting [26]), 50 µg/mL (≈ 110 µM); in assay [10] (setting [27]), 25 µg/mL (≈ 55 µM).
As to `CC1C(=NOCc2ccccc2)C(C)C(c2ccc(Cl)cc2)OC1c1ccc(Cl)cc1` (stereo in doubt; 7c2), the MIC turned out to be 50 µg/mL (≈ 110 µM) in assay [1]; 50 µg/mL (≈ 110 µM) in [2]; 100 µg/mL (≈ 220 µM) in assay [3]; 50 µg/mL (≈ 110 µM) in assay [4]; 12.5 µg/mL (≈ 27.5 µM) in [5]; 25 µg/mL (≈ 55 µM) in assay [6]. Besides, the MIC worked out at 25 µg/mL (≈ 55 µM) in assay [7], 50 µg/mL (≈ 110 µM) in [8], 25 µg/mL (≈ 55 µM) in [9] and 12.5 µg/mL (≈ 27.5 µM) in [10].
Turning to `Cc1ccc(C2OC(c3ccc(C)cc3)C(C)C(=NOCc3ccccc3)C2C)cc1` (stereo in doubt; 7d1), the MIC in assay [1] (setting [20]) was 12.5 µg/mL (≈ 30.2 µM); in assay [2] (setting [21]), 12.5 µg/mL (≈ 30.2 µM); in [3] (setting [22]), 25 µg/mL (≈ 60.5 µM); in assay [4] (setting [23]), 25 µg/mL (≈ 60.5 µM); in [5], 25 µg/mL (≈ 60.5 µM); in assay [6], 50 µg/mL (≈ 121 µM). The MIC came out at 50 µg/mL (≈ 121 µM) in assay [7] (Rhizopus, read-out: MIC); 50 µg/mL (≈ 121 µM) in [8] (setting [25]); 50 µg/mL (≈ 121 µM) in assay [9] (setting [26]); 50 µg/mL (≈ 121 µM) in assay [10] (setting [27]). Further, the Ratio in assay [11] and in assay [12] was 2 throughout.

The record behind these values is ChEMBL document CHEMBL1158420, “Synthesis, spectral, crystal and antimicrobial studies of biologically potent oxime ethers of nitrogen, oxygen and sulfur heterocycles” (2009).
